Values after ≈ are worked out from the molar mass of the structure shown. Values joined by “and” are separate entries in the source; they are usually repeats but may differ in a detail not shown here. Equal values may be shown once. Read-outs that look alike come from different tables or passages of the source.
Tests used:
Candida albicans = assay: Susceptibility assay (MIC, broth microdilution, CLSI M27); type: cell-based; conditions: for MIC: 24 h; for NO dose at MIC: calculated NO dose at MIC
Candida auris = assay: as above; type: cell-based; conditions: for MIC / NO dose at MIC: Candidozyma auris; for MIC: 24 h; for NO dose at MIC: calculated NO dose at MIC; for resistance of strain to antifungal (breakpoint): CLSI/EUCAST breakpoints
Cryptococcus neoformans = assay: as above; type: cell-based; conditions: for MIC / NO dose at MIC: Cryptococcus neoformans; for MIC: 72 h; for NO dose at MIC: calculated NO dose at MIC
[1] = system: Aspergillus fumigatus spores; assay: Susceptibility assay for sporulating fungi (MIC, EUCAST E.Def.9.4); type: cell-based
C. auris (MYA-5001) = type: cell-based, Candida auris
[2] = system: C. neoformans (ATCC208821); type: cell-based, Cryptococcus neoformans
[3] = Characterization of NO release (chemiluminescence nitric oxide analyzer); type: physicochemical
[4] = system: C. albicans (ATCC MYA-2876); assay: Checkerboard assay of NO donors with antifungals; type: cell-based, Candida albicans
C. auris (ATCC MYA-5001) = assay: Checkerboard assay of NO donors with antifungals; type: cell-based, Candida auris
[5] = system: C. neoformans (ATCC 208821); assay: Checkerboard assay of NO donors with antifungals; type: cell-based, Cryptococcus neoformans
[6] = system: MatTek EpiAirway tissue (AIR-100); assay: cells; type: cell-based; conditions: Homo sapiens, 24 h, read-out: IC50 (concentration needed to inhibit tissue viability by 50%)
[7] = ATCC208821, 72 h, Cryptococcus neoformans ATCC 208821
[8] = ATCC1022, Aspergillus fumigatus ATCC 1022 spores
[9] = Cryptococcus neoformans ATCC 208821
[10] = Cryptococcus neoformans ATCC MYA-4566
[11] = Cryptococcus neoformans ATCC MYA-4567
[12] = phosphate-buffered saline 10 mM, pH 7.4, 37 °C
[13] = ATCC14053, Candida albicans ATCC 14053
[14] = ATCC18804, Candida albicans ATCC 18804
[15] = NO donor combined with 5-fluorocytosine
[16] = NO donor combined with amphotericin B
[17] = NO donor combined with butenafine
[18] = NO donor combined with caspofungin
[19] = NO donor combined with fluconazole
[20] = NO donor combined with miconazole

Nc1nc(=O)[nH]cc1F [5-fluorocytosine, reference compound]
MIC (Candida albicans; Candida albicans ATCC MYA-2876): 0.125 µg/mL (≈ 0.968 µM) | MIC (Candida auris; Candida auris ATCC MYA-5001): 2 µg/mL (≈ 15.5 µM) | MIC (Cryptococcus neoformans; [7]): 4 µg/mL (≈ 31 µM) | MIC [1, 8]: > 62.5 µg/mL | increase of MIC and MFC values after serial passaging (C. auris (MYA-5001); C. auris, daily exposure to 1/10th of MIC, by passage 5): over 256 fold | increase of MIC and MFC values after serial passaging ([2]; C. neoformans, daily exposure to 1/10th of MIC, by passage 5): over 256 fold

NCCNCCN [DETA, Diethylenetriamine, reference compound]
MIC of base scaffold (Candida albicans; Candida albicans ATCC 14053): > 20000 µg/mL | MIC of base scaffold (Candida albicans; Candida albicans ATCC 18804): > 20000 µg/mL | MIC of base scaffold (Candida albicans; Candida albicans ATCC MYA-2876): > 20000 µg/mL | MIC of base scaffold (Candida auris; Candida auris ATCC MYA-5000): > 20000 µg/mL | MIC of base scaffold (Candida auris; Candida auris ATCC MYA-5001): > 20000 µg/mL | MIC of base scaffold (Candida auris; Candida auris ATCC MYA-5003): > 20000 µg/mL | MIC of base scaffold (Cryptococcus neoformans; [9]): > 20000 µg/mL | MIC of base scaffold (Cryptococcus neoformans; [10]): > 20000 µg/mL | MIC of base scaffold (Cryptococcus neoformans; [11]): 10000 µg/mL

NCCN(CCN)/[N+]([O-])=N/O [DETA/NO, diethylenetriamine/NO]
[NO]t, total NO released over full duration ([3]; pH 7.4): 6.3 ± 0.6 µmol/mg | [NO]max, maximum instantaneous NO concentration [3, 12]: 735 ± 94 ppb mg^−1 | td, duration of NO release [3, 12]: 107.6 ± 19.9 h | MIC (Candida albicans; [13]): 625 µg/mL (≈ 3830 µM) | NO dose at MIC (Candida albicans; [13]): 117 µg/mL | MIC (Candida albicans; [14]): 625 µg/mL (≈ 3830 µM) | NO dose at MIC (Candida albicans; [14]): 117 µg/mL | Selectivity Index (IC50 AIR-100 / MIC) (Candida albicans; C. albicans ATCC 14053): 77 | Selectivity Index (IC50 AIR-100 / MIC) (Candida albicans; C. albicans ATCC 18804): 77 | Selectivity Index (IC50 AIR-100 / MIC) (Candida albicans; C. albicans ATCC MYA-2876): 383 | MIC (Candida albicans; Candida albicans ATCC MYA-2876): 125 µg/mL (≈ 766 µM) | NO dose at MIC (Candida albicans; Candida albicans ATCC MYA-2876): 23.5 µg/mL | Selectivity Index (IC50 AIR-100 / MIC) (Candida auris; C. auris ATCC MYA-5000): 77 | Selectivity Index (IC50 AIR-100 / MIC) (Candida auris; C. auris ATCC MYA-5001): 1595 | Selectivity Index (IC50 AIR-100 / MIC) (Candida auris; C. auris ATCC MYA-5003): 154 | MIC (Candida auris; Candida auris ATCC MYA-5000): 625 µg/mL (≈ 3830 µM) | MIC (Candida auris; Candida auris ATCC MYA-5001): 30 µg/mL (≈ 184 µM) | MIC (Candida auris; Candida auris ATCC MYA-5003): 310 µg/mL (≈ 1900 µM) | NO dose at MIC (Candida auris; Candida auris ATCC MYA-5000): 117 µg/mL | NO dose at MIC (Candida auris; Candida auris ATCC MYA-5001): 5.65 µg/mL | NO dose at MIC (Candida auris; Candida auris ATCC MYA-5003): 58.4 µg/mL | Selectivity Index (IC50 AIR-100 / MIC) (Cryptococcus neoformans; C. neoformans ATCC 208821): 191 | Selectivity Index (IC50 AIR-100 / MIC) (Cryptococcus neoformans; C. neoformans ATCC MYA-4566): 613 | Selectivity Index (IC50 AIR-100 / MIC) (Cryptococcus neoformans; C. neoformans ATCC MYA-4567): 154 | MIC (Cryptococcus neoformans; [10]): 78 µg/mL (≈ 478 µM) | MIC (Cryptococcus neoformans; [11]): 310 µg/mL (≈ 1900 µM) | MIC (Cryptococcus neoformans; [7]): 250 µg/mL (≈ 1530 µM) | NO dose at MIC (Cryptococcus neoformans; ATCC208821, Cryptococcus neoformans ATCC 208821): 47 µg/mL | NO dose at MIC (Cryptococcus neoformans; [10]): 14.7 µg/mL | NO dose at MIC (Cryptococcus neoformans; [11]): 58.4 µg/mL | Selectivity Index (IC50 AIR-100 / MIC) ([1]; A. fumigatus ATCC 1022): 150 | MIC [1, 8]: 320 µg/mL (≈ 1960 µM) | NO dose at MIC ([1]; ATCC1022, Aspergillus fumigatus ATCC 1022 spores, calculated NO dose at MIC): 60.5 µg/mL | checkerboard classification [4, 15]: I (indifferent (I)) | ∑FIC [4, 15]: ≥ 1 | checkerboard classification [4, 16]: I (indifferent (I)) | ∑FIC [4, 16]: ≥ 1 | checkerboard classification [4, 17]: I (indifferent (I)) | ∑FIC [4, 17]: ≥ 1 | checkerboard classification [4, 18]: I (indifferent (I)) | ∑FIC [4, 18]: ≥ 1 | checkerboard classification [4, 19]: I (indifferent (I)) | ∑FIC [4, 19]: ≥ 1 | checkerboard classification [4, 20]: S (Synergistic (S)) | ∑FIC [4, 20]: 0.375 | checkerboard classification (C. auris (ATCC MYA-5001); [15]): I (indifferent (I)) | ∑FIC (C. auris (ATCC MYA-5001); [15]): ≥ 1 | checkerboard classification (C. auris (ATCC MYA-5001); [16]): I (indifferent (I)) | ∑FIC (C. auris (ATCC MYA-5001); [16]): ≥ 1 | checkerboard classification (C. auris (ATCC MYA-5001); [17]): I (indifferent (I)) | ∑FIC (C. auris (ATCC MYA-5001); [17]): ≥ 1 | checkerboard classification (C. auris (ATCC MYA-5001); [18]): I (indifferent (I)) | ∑FIC (C. auris (ATCC MYA-5001); [18]): ≥ 1 | checkerboard classification (C. auris (ATCC MYA-5001); [19]): I (indifferent (I)) | ∑FIC (C. auris (ATCC MYA-5001); [19]): ≥ 1 | checkerboard classification (C. auris (ATCC MYA-5001); [20]): I (indifferent (I)) | ∑FIC (C. auris (ATCC MYA-5001); [20]): ≥ 1 | checkerboard classification [5, 15]: I (indifferent (I)) | ∑FIC [5, 15]: ≥ 1 | checkerboard classification [5, 16]: I (indifferent (I)) | ∑FIC [5, 16]: ≥ 1 | checkerboard classification [5, 17]: A (additive (A)) | ∑FIC [5, 17]: 0.500 | checkerboard classification [5, 18]: I (indifferent (I)) | ∑FIC [5, 18]: ≥ 1 | checkerboard classification [5, 19]: I (indifferent (I)) | ∑FIC [5, 19]: ≥ 1 | checkerboard classification [5, 20]: A (additive (A)) | ∑FIC [5, 20]: 0.562 | change in MIC or MFCs after serial passaging (C. auris (MYA-5001)): no change | change in MIC or MFCs after serial passaging [2]: no change | IC50 [6]: 48000 µg/mL (≈ 294000 µM)

NCCCNCCCN [DPTA, bis(3-aminopropyl) amine, reference compound]
MIC of base scaffold (Candida albicans): 20000 µg/mL | MIC of base scaffold (Candida auris): > 20000 µg/mL | MIC of base scaffold (Cryptococcus neoformans): 5000 µg/mL and 2500 µg/mL

NCCCNCCCCNCCCN [SPER, spermine, reference compound]
MIC of base scaffold (Candida albicans; Candida albicans ATCC 14053): 20000 µg/mL | MIC of base scaffold (Candida albicans; Candida albicans ATCC 18804): > 20000 µg/mL | MIC of base scaffold (Candida albicans; Candida albicans ATCC MYA-2876): > 20000 µg/mL | MIC of base scaffold (Candida auris; Candida auris ATCC MYA-5000): > 20000 µg/mL | MIC of base scaffold (Candida auris; Candida auris ATCC MYA-5001): > 20000 µg/mL | MIC of base scaffold (Candida auris; Candida auris ATCC MYA-5003): > 20000 µg/mL | MIC of base scaffold (Cryptococcus neoformans; [9]): 5000 µg/mL | MIC of base scaffold (Cryptococcus neoformans; [10]): 2500 µg/mL | MIC of base scaffold (Cryptococcus neoformans; [11]): 2500 µg/mL

C[C@@H]1[C@H](O)[C@@H](C)/C=C/C=C/C=C/C=C/C=C/C=C/C=C/[C@H](O[C@@H]2O[C@H](C)[C@@H](O)[C@H](N)[C@@H]2O)C[C@@H]2O[C@](O)(C[C@@H](O)C[C@@H](O)[C@H](O)CC[C@@H](O)C[C@@H](O)CC(=O)O[C@H]1C)C[C@H](O)[C@H]2C(=O)O [amphotericin B, reference compound]
MIC (Candida albicans; Candida albicans ATCC MYA-2876): 0.25 µg/mL (≈ 0.271 µM) | MIC (Candida auris; Candida auris ATCC MYA-5001): 0.5 µg/mL (≈ 0.541 µM) | MIC (Cryptococcus neoformans; [7]): 0.195 µg/mL (≈ 0.211 µM) | resistance of strain to antifungal (breakpoint) ([1]; A. fumigatus ATCC 1022, CLSI/EUCAST breakpoints): resistant | MIC [1, 8]: 2.5 µg/mL (≈ 2.71 µM)

CN(Cc1ccc(C(C)(C)C)cc1)Cc1cccc2ccccc12 [butenafine, reference compound]
MIC (Candida albicans; Candida albicans ATCC MYA-2876): > 4000 µg/mL | MIC (Candida auris; Candida auris ATCC MYA-5001): > 4000 µg/mL | MIC (Cryptococcus neoformans; [7]): 0.3 µg/mL (≈ 0.945 µM) | MIC [1, 8]: > 500 µg/mL

CC[C@H](C)C[C@H](C)CCCCCCCCC(=O)N[C@H]1C[C@@H](O)[C@@H](NCCN)NC(=O)[C@@H]2[C@@H](O)CCN2C(=O)[C@H]([C@H](O)CCN)NC(=O)[C@H]([C@H](O)[C@@H](O)c2ccc(O)cc2)NC(=O)[C@@H]2C[C@@H](O)CN2C(=O)[C@H]([C@@H](C)O)NC1=O [caspofungin, reference compound]
MIC (Candida albicans; Candida albicans ATCC MYA-2876): 0.25 µg/mL (≈ 0.229 µM) | resistance of strain to antifungal (breakpoint) (Candida auris; C. auris ATCC MYA-5001): resistant | MIC (Candida auris; Candida auris ATCC MYA-5001): > 32 µg/mL | MIC (Cryptococcus neoformans; [7]): 32 µg/mL (≈ 29.3 µM) | MIC [1, 8]: 125 µg/mL (≈ 114 µM)

OC(Cn1cncn1)(Cn1cncn1)c1ccc(F)cc1F [fluconazole, reference compound]
resistance of strain to antifungal (breakpoint) (Candida albicans; C. albicans ATCC MYA-2876, CLSI/EUCAST breakpoints): resistant | MIC (Candida albicans; Candida albicans ATCC MYA-2876): > 32 µg/mL | resistance of strain to antifungal (breakpoint) (Candida auris; C. auris ATCC MYA-5001): resistant | MIC (Candida auris; Candida auris ATCC MYA-5001): > 32 µg/mL | MIC (Cryptococcus neoformans; [7]): 4 µg/mL (≈ 13.1 µM) | MIC [1, 8]: > 125 µg/mL

Clc1ccc(COC(Cn2ccnc2)c2ccc(Cl)cc2Cl)c(Cl)c1 (stereo not drawn) [miconazole, reference compound]
MIC (Candida albicans; Candida albicans ATCC MYA-2876): 60 µg/mL (≈ 144 µM) | MIC (Candida auris; Candida auris ATCC MYA-5001): 4 µg/mL (≈ 9.61 µM) | MIC (Cryptococcus neoformans; [7]): 0.5 µg/mL (≈ 1.2 µM) | MIC [1, 8]: > 500 µg/mL

From PMC11121837, “Impact of Nitric Oxide-Release Kinetics on Antifungal Activity” (Journal of Fungi, 2024)
